# “Also recorded” adds a separate entry of the source. Where two headings read alike, the source gives them in different places.
# Experiments:
# [1] = system: rabbit skin; assay: rabbit skin irritation model; format: in vivo; conditions: for Erythema score: Table 3, topical daily 14 days, ethanol; for IS3, irritation relative to TRA: species not given
# [2] = system: rhino mice; assay: rhino mouse assay, comedolytic activity (utriculi size reduction); format: in vivo; conditions: for ED30: Table 4, topical activity; for ED30 (30% reduction in utriculi size): rhino mouse, FIG. 1 study
# Description: (§1) The comedolytic activity of the compounds of the instant application has been evaluated by the rhino mouse assay model. The compounds were administered daily to rhino mice topically in ethanol at various concentrations for 5 days. Signs of skin irritation are evaluated at day 5 by visual inspection of the mouse skin and graded for edema, erythema (redness) and scaling (flakiness) with scales of 1-5 and 1-4, respectively. Skin samples were taken at day 7 and processed for image analysis to measure the size of utriculi.
# [3] = system: rhino mice; parameters: species or system rhino mouse; conditions: mouse, in vivo
# Description: as §1
# [4] = rabbit skin irritation model; format: in vivo; conditions: rabbit, in vivo, topical or ocular; from IS3 and ED30, Table 4; read-out: Therapeutic index
# [5] = system: MCF7 Breast CA (E2-dep.); assay: inhibition of cell proliferation (3H-thymidine uptake), MCF7; format: cell-based; conditions: Homo sapiens
# Description: (§2) The compounds of the present invention have been also tested as inhibitors of cell proliferation (^3 H-thymidine uptake). Cells were plated on 96-well plates at a pre-determined density so that 80% cellular confluency is reached by day 7. 24 hr after plating, culture media was changed and cells were treated with the appropriate drug or vehicle (day 0). Culture media was changed on days 3 and 6. Cellular proliferation was measured on Day 7 by quantitating the amount of tritiated thymidine ([3H]-TdR) incorporated into the celular DNA (Odham, K. G. (1977) in: Radiotracer Techniques and Applications, edited by E. A. Evans and M. Murawatsu; M. Dekker Inc. New York; 2, 823).
# [6] = molecular target: T1, RARβ (Homo sapiens, UniProt P10826); assay: apparent Kd for binding to RARβ; conditions: read-out: Kd (β)
# T1 sequence (P10826 1-455): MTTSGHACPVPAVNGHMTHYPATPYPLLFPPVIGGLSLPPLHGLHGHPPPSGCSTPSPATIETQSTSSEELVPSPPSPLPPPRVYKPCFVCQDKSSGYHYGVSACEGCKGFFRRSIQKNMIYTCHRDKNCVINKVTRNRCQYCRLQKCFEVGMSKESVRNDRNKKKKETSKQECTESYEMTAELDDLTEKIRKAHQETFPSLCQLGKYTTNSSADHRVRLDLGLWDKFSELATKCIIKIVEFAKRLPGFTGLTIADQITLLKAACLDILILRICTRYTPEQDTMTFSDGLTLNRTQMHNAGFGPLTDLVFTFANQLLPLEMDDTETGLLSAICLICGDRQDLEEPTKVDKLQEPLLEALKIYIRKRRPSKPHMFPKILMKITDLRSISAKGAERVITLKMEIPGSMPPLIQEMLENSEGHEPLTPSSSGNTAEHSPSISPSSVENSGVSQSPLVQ
# [7] = molecular target: T2, RARα (Homo sapiens, UniProt P10276); assay: apparent Kd for binding to RARα; conditions: read-out: Kd (α)
# T2 sequence (P10276 1-462): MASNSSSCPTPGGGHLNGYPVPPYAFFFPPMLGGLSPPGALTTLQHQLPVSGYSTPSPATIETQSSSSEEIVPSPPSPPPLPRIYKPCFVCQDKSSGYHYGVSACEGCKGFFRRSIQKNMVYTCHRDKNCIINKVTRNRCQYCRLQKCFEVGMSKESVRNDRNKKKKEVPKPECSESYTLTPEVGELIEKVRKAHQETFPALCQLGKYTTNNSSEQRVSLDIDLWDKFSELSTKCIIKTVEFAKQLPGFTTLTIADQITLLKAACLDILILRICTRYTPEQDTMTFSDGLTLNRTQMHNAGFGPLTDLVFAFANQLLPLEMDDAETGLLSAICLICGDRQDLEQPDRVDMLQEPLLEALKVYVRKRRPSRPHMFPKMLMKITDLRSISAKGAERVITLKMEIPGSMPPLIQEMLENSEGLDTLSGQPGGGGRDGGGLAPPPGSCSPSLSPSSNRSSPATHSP
# [8] = system: Detroit 562 Pharyngeal CA; assay: inhibition of cell proliferation (3H-thymidine uptake), Detroit 562; format: cell-based; conditions: Homo sapiens
# Description: as §2
# [9] = molecular target: T3, RARγ (Homo sapiens, UniProt P13631); assay: apparent Kd for binding to RARγ; conditions: read-out: Kd (γ)
# T3 sequence (P13631 1-454): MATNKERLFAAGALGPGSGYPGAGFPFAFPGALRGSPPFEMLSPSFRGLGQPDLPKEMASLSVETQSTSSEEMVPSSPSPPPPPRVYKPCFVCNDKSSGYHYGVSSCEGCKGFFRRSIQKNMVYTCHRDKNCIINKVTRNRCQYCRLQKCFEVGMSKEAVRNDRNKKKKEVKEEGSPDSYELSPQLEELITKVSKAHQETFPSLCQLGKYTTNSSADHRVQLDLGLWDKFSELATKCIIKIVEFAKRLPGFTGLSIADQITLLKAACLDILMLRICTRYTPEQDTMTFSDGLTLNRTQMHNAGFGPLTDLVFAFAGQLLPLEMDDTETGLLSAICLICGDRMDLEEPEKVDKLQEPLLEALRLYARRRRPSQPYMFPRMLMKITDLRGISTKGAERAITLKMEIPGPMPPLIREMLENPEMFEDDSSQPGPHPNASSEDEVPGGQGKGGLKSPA
# [10] = system: SK-BR-3 Breast CA (E2-indep.); assay: inhibition of cell proliferation (3H-thymidine uptake), SK-BR-3; format: cell-based; conditions: Homo sapiens
# Description: as §2
# [11] = system: SCC 25 tongue SCC; assay: inhibition of cell proliferation (3H-thymidine uptake), SCC 25; format: cell-based; conditions: Homo sapiens
# Description: as §2
# [12] = system: H3396 (ER+) breast carcinoma subcutaneous xenografts; assay: tumor growth inhibition in athymic mice bearing H3396 xenografts; format: in vivo; conditions: intraperitoneal, every two days for 10 days
# Description: This potent anti-proliferative activity is also translated in vivo on athymic mice bearing H3396 (ER+) breast carcinoma subcutaneous xenografts (P. A. Trail, et al., Cancer Research, 52, p. 5693-5700 (1992). Athymic mice were implanted with 0.72 mg (60-day release) estradiol pellets (Innovative Research of America, Toledo, Ohio) one day prior to the implantation of H3396 tumors. H3396 tumors were measured in two perpendicular directions at weekly or biweekly intervals, using calipers. Tumor volume was calculated according to the equation: V=I×w^2 /2, where V=volume (mm3), I=measurement of longest axis (mm), and w=measurement of axis perpendicular to 1. In general, there were 8-10 mice in each control or treatment group. Data are presented as median tumor size for control or treated groups. Antitumor activity is expressed in terms of median TVDD values, where TVDD=T-C/TVDT; T-C is defined as the median time (days) for treated tumors to reach 500 mm3 in size minus the median time for control tumors to reach 500 mm3 in size and TVDT is the time (days) for control tumors to double in volume (250-500 mm3).
# In this experiment, the tumor growth delay was equivalent to 1.2 log cell kill at 30 mg/kg.
# [13] = system: H3396 Breast CA (E2-dep.); assay: inhibition of cell proliferation (3H-thymidine uptake), H3396; format: cell-based; conditions: Homo sapiens
# Description: as §2
# [14] = system: Calu-3 Lung CA; assay: inhibition of cell proliferation (3H-thymidine uptake), Calu-3; format: cell-based; conditions: Homo sapiens
# Description: as §2
# [15] = species and concentration not given
# [16] = topical daily in ethanol, 5 days
# [17] = 7 days, 3H-thymidine, read-out: IC50
molecule,measurement,setting,value
"4-[(E)-(5,6-Dihydro-5,5-dimethyl-8-(1-methyl-1-ethane-thio)-2-naphthalenyl)ethenyl]benzoic acid [Compound D]",Erythema score,[1]; concentration not given,5.7
same,"IS3, irritation in words",[1]; [15],Very irritating
same,"IS3, irritation relative to TRA",[1],>>TRA
same,Utriculi reduction at 0.1 mM,[2]; [16],85.4%
same,ED30,[2],< 100000 nM
"CC1=C(C#CC(C)(C)C)c2cc(/C=C/c3ccc(C(=O)O)cc3)ccc2C(C)(C)C1 [Compound A, 4-[(E)-(5,6-Dihydro-5,5-dimethyl-7-methyl-8-(3,3-dimethyl-1-butyn-1-yl)-2-naphthalenyl)ethenyl]benzoic acid]",Erythema score,[1]; concentration not given,3.1
same,"IS3, irritation in words",[3],Very irritating
same,Utriculi reduction at 0.1 mM,[2]; [16],100%
same,ED30,[2],< 100000 nM
"CCC(C)(/C=C\C1=CCC(C)(C)c2ccc(/C=C/c3ccc(C(=O)O)cc3)cc21)CC [Compound B, 4-[(E)-(5,6-Dihydro-5,5-dimethyl-8-((Z)-3-methyl-3-ethyl-1-penten-1-yl)-2-naphthalenyl)ethenyl]benzoic acid]",Erythema score,[1]; concentration not given,2.8
same,"IS3, irritation in words",[1]; [15],Irritating
same,"IS3, irritation relative to TRA",[1],<TRA
same,"Utriculi reduction (at 1.6 mM, printed in the 1 mM column)","[2]; 1.6 mM, topical daily in ethanol, 5 days",100%
"CC(C)(C)/C=C\C1=CCC(C)(C)c2ccc(/C=C/c3ccc(C(=O)O)cc3)cc21 [Compound C, 4-[(E)-(5,6-Dihydro-5,5-dimethyl-8-((Z)-3,3-dimethyl-1-buten-1-yl)-2-naphthalenyl)ethenyl]benzoic acid]",selectivity ratio,[4],< 20
same,Erythema score,[1]; concentration not given,6.0
same,"IS3, irritation in words","[1]; in rabbits, concentration not given",Very irritating
same,"IS3, irritation in words",[3],Very irritating
same,"Utriculi reduction (at 0.01 mM, printed in the 0.1 mM column)","[2]; 0.01 mM, topical daily in ethanol, 5 days",30%
same,ED30,[2],80000 nM
"CC(C)(C)C#CC1=CCC(C)(C)c2ccc(/C=C/c3ccc(C(=O)O)cc3)cc21 [Compound I, 4-[(E)-(5,6-Dihydro-5,5-dimethyl-8-(3,3-dimethyl-1-butyn-1-yl)-2-naphthalenyl)ethenyl]benzoic acid]",IC50,[5]; [17],6500 nM
same,selectivity ratio,[4],> 99
same,therapeutic index compared with TRA and analogs,[1],highly superior to TRA and to most of the closely related analogs
same,irritation to rabbit skin,"[1]; 1 mM, 14 days, FIG. 2",did not cause any irritation
same,irritation to rabbit skin,[1]; 5 mM,did not cause any signs of irritation to rabbit skin; also recorded: did not show any signs of irritation
same,Erythema score,[1]; concentration not given,0
same,"IS3, irritation in words",[1]; in rabbits at 5 mM,No irritation
same,Kd,[6],1.26 nM
same,Kd,[7],2.23 nM
same,IC50,[8]; [17],5500 nM
same,Kd,[9],25 nM
same,IC50,[10]; [17],8 nM
same,IC50,[11]; [17],9500 nM
same,tumor growth delay equivalent (log cell kill),[12]; 30 mg/kg,1.2 log cell kill
same,potency in inhibiting tumor growth compared with doxorubicin,[12]; FIG. 3,as potent as doxorubicin
same,IC50,[13]; [17],40 nM
same,IC50,[14]; [17],10 nM
same,Utriculi reduction at 0.1 mM,[2]; [16],72%
same,Utriculi reduction at 1 mM,[2]; [16],100%
same,ED30,[2],55000 nM
same,ED30 (30% reduction in utriculi size),[2],55000 nM
"CC(C)(O)/C=C\C1=CCC(C)(C)c2ccc(/C=C/c3ccc(C(=O)O)cc3)cc21 [II, 4-[(E)-(5,6-Dihydro-5,5-dimethyl-8-((Z)-3-methyl-3-hydroxyl-1-buten-1-yl)-2-naphthalenyl)ethenyl]benzoic acid]",Erythema score,[1]; concentration not given,0
same,Kd,[6],2.19 nM
same,Kd,[7],1.6 nM
same,Kd,[9],1.57 nM
same,"IS3, irritation in words",[3],No irritation
same,Utriculi reduction at 0.1 mM,[2]; [16],8.4%
same,Utriculi reduction at 1 mM,[2]; [16],84%
same,ED30,[2],400000 nM
"CC1=C(/C=C/C(C)=C/C=C/C(C)=C/C(=O)O)C(C)(C)CCC1 [TRA, All-trans retinoic acid]",IC50,[5],650 nM
same,Erythema score,[1]; concentration not given,4.8
same,IS3 (concentration necessary to achieve an irritation score of 3),[1]; Table 4,0.3 mM
same,irritation to rabbit skin,"[1]; concentrations above 0.1 mM, 14 days, FIG. 2",caused significant irritation to rabbit skin
same,IC50,[8],> 10000 nM
same,IC50,[10],1 nM
same,IC50,[11],50 nM
same,IC50,[13],300 nM
same,IC50,[14],100 nM
same,Utriculi reduction at 0.1 mM,[2]; [16],64%
same,Utriculi reduction at 1 mM,[2]; [16],100%
same,ED30,[2],15000 nM
same,ED30 (30% reduction in utriculi size),[2],28000 nM
